According to paper PMC11637875, “Discovery of novel PARP1/NRP1 dual-targeting inhibitors with strong antitumor potency” (Frontiers in Pharmacology, 2024):

Experiments:
AurB = AurB (Homo sapiens, UniProt Q96GD4); experiment: Selectivity profile (123 kinase panel); assay type: biochemical
MST2 = MST2 (Homo sapiens, UniProt Q13188); experiment: Selectivity profile (123 kinase panel); assay type: biochemical
DYRK2 = DYRK2 (Homo sapiens, UniProt Q92630); experiment: Selectivity profile (123 kinase panel); assay type: biochemical
AXL = AXL (Homo sapiens, UniProt P30530); experiment: Selectivity profile (123 kinase panel); assay type: biochemical
PARP14 = PARP14 (Homo sapiens, UniProt Q460N5); experiment: Selectivity profile (other isoforms of PARP and NRP family); assay type: biochemical
Chain of PARP14 (Q460N5 whole entry, canonical isoform): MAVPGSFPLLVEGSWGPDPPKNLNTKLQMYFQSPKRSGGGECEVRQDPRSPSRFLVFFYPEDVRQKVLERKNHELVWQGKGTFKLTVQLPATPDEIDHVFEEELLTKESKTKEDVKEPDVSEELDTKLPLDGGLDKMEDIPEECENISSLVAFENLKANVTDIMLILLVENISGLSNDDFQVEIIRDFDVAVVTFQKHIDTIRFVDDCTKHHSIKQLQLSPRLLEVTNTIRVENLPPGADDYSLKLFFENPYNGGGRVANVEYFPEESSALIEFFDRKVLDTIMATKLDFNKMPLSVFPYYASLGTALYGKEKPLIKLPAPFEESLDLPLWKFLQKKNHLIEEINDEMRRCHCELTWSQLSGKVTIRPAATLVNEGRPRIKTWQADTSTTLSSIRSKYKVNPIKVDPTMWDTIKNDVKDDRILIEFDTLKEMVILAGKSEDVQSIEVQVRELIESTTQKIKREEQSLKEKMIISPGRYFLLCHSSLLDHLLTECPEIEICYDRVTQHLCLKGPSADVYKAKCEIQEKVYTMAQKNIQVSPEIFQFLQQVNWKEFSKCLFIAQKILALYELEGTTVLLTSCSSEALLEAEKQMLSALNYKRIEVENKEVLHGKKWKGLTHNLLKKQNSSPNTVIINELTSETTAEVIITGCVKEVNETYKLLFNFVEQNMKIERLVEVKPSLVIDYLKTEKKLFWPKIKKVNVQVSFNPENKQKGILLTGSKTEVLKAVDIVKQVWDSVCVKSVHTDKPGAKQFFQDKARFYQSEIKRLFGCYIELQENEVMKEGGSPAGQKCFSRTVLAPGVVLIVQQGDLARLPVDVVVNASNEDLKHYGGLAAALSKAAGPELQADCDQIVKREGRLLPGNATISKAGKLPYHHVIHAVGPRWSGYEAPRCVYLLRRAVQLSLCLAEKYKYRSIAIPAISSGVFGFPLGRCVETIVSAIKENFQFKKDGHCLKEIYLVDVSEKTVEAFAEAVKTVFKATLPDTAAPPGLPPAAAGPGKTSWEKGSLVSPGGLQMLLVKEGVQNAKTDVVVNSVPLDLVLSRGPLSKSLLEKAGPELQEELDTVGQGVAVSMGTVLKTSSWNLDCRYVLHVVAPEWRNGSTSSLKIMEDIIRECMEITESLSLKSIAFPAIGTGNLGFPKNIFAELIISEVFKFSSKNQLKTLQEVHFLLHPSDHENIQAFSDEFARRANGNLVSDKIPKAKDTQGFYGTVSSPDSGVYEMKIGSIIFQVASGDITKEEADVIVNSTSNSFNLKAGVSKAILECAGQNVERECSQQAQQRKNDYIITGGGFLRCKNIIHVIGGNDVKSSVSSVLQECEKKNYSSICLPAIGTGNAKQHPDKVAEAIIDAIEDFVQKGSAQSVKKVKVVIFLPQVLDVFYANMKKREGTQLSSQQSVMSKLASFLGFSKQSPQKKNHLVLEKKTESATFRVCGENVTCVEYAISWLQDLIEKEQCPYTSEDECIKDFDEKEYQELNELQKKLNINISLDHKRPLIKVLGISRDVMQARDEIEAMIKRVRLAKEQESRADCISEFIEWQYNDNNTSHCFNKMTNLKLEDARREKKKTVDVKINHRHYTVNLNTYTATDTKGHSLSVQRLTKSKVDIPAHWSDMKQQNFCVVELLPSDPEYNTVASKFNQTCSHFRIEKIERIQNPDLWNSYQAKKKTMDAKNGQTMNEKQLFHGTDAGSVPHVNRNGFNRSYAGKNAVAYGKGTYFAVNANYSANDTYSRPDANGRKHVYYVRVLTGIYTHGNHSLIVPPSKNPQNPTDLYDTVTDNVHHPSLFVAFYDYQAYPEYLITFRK

MLK3 = MLK3 (Homo sapiens, UniProt Q16584); experiment: Selectivity profile (123 kinase panel); assay type: biochemical
Erk1 = Erk1 (Homo sapiens, UniProt P27361); experiment: Selectivity profile (123 kinase panel); assay type: biochemical
HIPK1 = HIPK1 (Homo sapiens, UniProt Q86Z02); experiment: Selectivity profile (123 kinase panel); assay type: biochemical
JNK3 = JNK3 (Homo sapiens, UniProt P53779); experiment: Selectivity profile (123 kinase panel); assay type: biochemical
CaMK2α = CaMK2α (Homo sapiens, UniProt Q9UQM7); experiment: Selectivity profile (123 kinase panel); assay type: biochemical
PARP9 = PARP9 (Homo sapiens, UniProt Q8IXQ6); experiment: Selectivity profile (other isoforms of PARP and NRP family); assay type: biochemical
EPHA3 = EPHA3 (Homo sapiens, UniProt P29320); experiment: Selectivity profile (123 kinase panel); assay type: biochemical
PARP1 = target: T1, PARP1 (Homo sapiens, UniProt P09874); experiment: Microscale thermophoresis (MST) assay; assay type: binding; conditions: labeled protein 50 nM, read-out: PARP1 (K d)
T1 construct: purchased Abcam
Protocol: (§1) All samples were diluted in 1 × PBST. […] Affinity Analysis software.

NRP1 = target: T2, NRP1 (Homo sapiens, UniProt O14786); experiment: Microscale thermophoresis (MST) assay; assay type: binding; conditions: labeled protein 50 nM, read-out: NRP1 (K d)
T2 construct: purchased Abcam
T2 sequence (O14786 22-644 isoform O14786-2 limits assumed): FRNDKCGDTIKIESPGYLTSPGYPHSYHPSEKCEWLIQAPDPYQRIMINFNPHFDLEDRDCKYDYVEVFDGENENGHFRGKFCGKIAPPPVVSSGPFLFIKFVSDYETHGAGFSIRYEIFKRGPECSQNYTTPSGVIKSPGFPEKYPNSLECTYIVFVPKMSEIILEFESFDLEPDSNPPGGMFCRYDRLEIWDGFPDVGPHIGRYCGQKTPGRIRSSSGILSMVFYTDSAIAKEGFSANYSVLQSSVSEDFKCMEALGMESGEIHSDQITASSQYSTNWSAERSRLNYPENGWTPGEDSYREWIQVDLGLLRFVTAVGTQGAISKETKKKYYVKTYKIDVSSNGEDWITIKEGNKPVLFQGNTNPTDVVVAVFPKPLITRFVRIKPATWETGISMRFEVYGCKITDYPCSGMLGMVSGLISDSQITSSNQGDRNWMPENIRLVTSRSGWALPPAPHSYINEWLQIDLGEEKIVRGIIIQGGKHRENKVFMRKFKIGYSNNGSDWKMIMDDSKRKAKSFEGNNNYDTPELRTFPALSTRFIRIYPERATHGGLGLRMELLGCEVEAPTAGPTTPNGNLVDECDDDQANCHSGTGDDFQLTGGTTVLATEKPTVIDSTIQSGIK
Protocol: as §1

MLK1 = MLK1 (Homo sapiens, UniProt P80192); experiment: Selectivity profile (123 kinase panel); assay type: biochemical
EPHA7 = EPHA7 (Homo sapiens, UniProt Q15375); experiment: Selectivity profile (123 kinase panel); assay type: biochemical
GSK3β = GSK3β (Homo sapiens, UniProt P49841); experiment: Selectivity profile (123 kinase panel); assay type: biochemical
MET = MET (Homo sapiens, UniProt P08581); experiment: Selectivity profile (123 kinase panel); assay type: biochemical
EPHA6 = EPHA6 (Homo sapiens, UniProt Q9UF33); experiment: Selectivity profile (123 kinase panel); assay type: biochemical
FRK = FRK (Homo sapiens, UniProt P42685); experiment: Selectivity profile (123 kinase panel); assay type: biochemical
Chain of FRK (P42685 whole entry): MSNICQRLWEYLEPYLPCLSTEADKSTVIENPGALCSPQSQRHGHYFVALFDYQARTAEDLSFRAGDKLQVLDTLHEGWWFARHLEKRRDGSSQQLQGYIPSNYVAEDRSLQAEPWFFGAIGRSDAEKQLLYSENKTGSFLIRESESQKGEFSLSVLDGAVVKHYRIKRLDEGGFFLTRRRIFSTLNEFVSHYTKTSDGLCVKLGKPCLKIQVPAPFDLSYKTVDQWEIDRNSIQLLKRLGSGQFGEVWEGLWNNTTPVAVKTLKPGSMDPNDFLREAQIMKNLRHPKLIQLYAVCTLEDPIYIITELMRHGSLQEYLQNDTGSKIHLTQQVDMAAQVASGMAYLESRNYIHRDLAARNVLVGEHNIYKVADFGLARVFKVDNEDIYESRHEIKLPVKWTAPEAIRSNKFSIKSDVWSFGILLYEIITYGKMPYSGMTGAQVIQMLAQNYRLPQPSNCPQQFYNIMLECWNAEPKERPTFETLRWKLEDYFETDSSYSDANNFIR

DYRK3 = DYRK3 (Homo sapiens, UniProt O43781); experiment: Selectivity profile (123 kinase panel); assay type: biochemical
NuaK1 = NuaK1 (Homo sapiens, UniProt O60285); experiment: Selectivity profile (123 kinase panel); assay type: biochemical
AMPKα1/β1/γ1 = AMPKα1/β1/γ1 (Homo sapiens, UniProt P54619+Q13131+Q9Y478); experiment: Selectivity profile (123 kinase panel); assay type: biochemical
DDR1 = DDR1 (Homo sapiens, UniProt Q08345); experiment: Selectivity profile (123 kinase panel); assay type: biochemical
NIM1K = NIM1K (Homo sapiens, UniProt Q8IY84); experiment: Selectivity profile (123 kinase panel); assay type: biochemical
EPHB2 = EPHB2 (Homo sapiens, UniProt P29323); experiment: Selectivity profile (123 kinase panel); assay type: biochemical
BRSK1 = BRSK1 (Homo sapiens, UniProt Q8TDC3); experiment: Selectivity profile (123 kinase panel); assay type: biochemical
JAK3 = JAK3 (Homo sapiens, UniProt P52333); experiment: Selectivity profile (123 kinase panel); assay type: biochemical
Chain of JAK3 (P52333 whole entry): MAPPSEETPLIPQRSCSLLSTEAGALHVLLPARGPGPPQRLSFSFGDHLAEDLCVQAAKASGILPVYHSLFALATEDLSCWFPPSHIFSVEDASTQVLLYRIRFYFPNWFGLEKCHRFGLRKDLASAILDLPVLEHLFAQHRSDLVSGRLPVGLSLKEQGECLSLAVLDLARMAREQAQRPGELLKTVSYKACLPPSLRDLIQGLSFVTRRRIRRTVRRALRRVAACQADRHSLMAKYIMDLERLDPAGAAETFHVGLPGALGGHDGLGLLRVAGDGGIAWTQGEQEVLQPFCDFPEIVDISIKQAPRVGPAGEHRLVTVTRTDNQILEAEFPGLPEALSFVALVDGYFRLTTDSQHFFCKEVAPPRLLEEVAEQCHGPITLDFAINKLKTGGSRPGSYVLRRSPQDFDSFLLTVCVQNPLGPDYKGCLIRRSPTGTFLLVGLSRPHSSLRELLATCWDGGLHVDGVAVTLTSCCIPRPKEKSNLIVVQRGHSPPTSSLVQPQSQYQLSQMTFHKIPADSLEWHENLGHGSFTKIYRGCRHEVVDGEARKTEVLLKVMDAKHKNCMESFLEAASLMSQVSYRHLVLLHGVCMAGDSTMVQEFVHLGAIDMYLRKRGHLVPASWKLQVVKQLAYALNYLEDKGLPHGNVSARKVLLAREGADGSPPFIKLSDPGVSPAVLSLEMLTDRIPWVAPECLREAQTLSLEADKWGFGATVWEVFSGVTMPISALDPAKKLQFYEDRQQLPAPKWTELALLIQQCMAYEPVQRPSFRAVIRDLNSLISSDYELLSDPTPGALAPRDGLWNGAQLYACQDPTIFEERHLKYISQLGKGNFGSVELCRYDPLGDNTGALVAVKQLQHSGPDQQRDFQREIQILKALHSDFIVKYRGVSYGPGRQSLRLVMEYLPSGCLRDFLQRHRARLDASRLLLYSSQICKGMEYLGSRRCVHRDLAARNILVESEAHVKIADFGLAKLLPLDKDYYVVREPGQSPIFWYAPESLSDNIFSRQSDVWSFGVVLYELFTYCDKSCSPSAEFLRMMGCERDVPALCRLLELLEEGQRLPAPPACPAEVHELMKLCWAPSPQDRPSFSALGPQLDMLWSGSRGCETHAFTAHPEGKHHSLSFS

BRK = BRK (Homo sapiens, UniProt Q13882); experiment: Selectivity profile (123 kinase panel); assay type: biochemical
FLT1 = FLT1 (Homo sapiens, UniProt P17948); experiment: Selectivity profile (123 kinase panel); assay type: biochemical
MARK3 = MARK3 (Homo sapiens, UniProt P27448); experiment: Selectivity profile (123 kinase panel); assay type: biochemical
FGFR2 = FGFR2 (Homo sapiens, UniProt P21802); experiment: Selectivity profile (123 kinase panel); assay type: biochemical
EPHA2 = EPHA2 (Homo sapiens, UniProt P29317); experiment: Selectivity profile (123 kinase panel); assay type: biochemical
Chain of EPHA2 (P29317 24-976, species assumed): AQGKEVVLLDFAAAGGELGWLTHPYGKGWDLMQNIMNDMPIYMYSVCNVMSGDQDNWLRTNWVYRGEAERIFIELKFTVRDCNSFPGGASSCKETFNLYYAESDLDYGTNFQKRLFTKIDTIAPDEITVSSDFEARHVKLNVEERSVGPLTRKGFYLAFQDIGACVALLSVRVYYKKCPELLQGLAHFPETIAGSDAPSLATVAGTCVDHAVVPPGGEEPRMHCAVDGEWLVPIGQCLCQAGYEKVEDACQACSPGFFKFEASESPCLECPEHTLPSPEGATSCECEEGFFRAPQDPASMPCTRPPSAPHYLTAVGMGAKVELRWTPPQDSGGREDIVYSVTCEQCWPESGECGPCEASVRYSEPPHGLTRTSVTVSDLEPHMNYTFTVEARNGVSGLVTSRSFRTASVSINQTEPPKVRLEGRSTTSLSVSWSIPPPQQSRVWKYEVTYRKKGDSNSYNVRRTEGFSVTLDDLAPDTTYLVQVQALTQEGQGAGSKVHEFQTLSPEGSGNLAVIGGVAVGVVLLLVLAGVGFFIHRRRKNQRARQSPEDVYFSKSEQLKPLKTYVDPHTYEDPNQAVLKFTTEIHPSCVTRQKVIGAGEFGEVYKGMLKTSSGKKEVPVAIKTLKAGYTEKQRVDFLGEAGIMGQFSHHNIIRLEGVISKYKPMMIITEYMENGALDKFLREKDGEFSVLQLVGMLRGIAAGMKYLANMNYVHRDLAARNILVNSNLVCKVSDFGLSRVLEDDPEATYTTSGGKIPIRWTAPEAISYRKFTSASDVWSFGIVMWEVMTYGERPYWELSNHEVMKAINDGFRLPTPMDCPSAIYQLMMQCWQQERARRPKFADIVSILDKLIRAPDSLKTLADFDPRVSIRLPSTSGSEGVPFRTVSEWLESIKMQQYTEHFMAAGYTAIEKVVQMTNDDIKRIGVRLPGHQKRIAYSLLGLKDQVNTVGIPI

PARP12 = PARP12 (Homo sapiens, UniProt Q9H0J9); experiment: Selectivity profile (other isoforms of PARP and NRP family); assay type: biochemical
GSK3α = GSK3α (Homo sapiens, UniProt P49840); experiment: Selectivity profile (123 kinase panel); assay type: biochemical
Chain of GSK3α (P49840 whole entry): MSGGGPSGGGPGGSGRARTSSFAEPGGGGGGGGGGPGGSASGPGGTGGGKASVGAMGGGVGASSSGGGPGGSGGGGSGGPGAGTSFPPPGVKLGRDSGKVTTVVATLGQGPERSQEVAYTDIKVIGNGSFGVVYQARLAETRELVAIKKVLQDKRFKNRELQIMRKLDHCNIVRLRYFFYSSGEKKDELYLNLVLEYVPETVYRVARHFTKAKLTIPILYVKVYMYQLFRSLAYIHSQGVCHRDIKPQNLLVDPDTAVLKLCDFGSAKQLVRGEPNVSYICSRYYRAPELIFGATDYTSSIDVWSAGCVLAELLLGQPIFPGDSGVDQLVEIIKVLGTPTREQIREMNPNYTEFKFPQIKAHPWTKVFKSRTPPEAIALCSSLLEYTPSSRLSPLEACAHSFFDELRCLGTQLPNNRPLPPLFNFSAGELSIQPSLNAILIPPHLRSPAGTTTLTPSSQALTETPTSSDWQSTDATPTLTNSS

SMILES: NC(N)=NCCC[C@H](NCN1CCN(C(=O)c2cc(Cc3n[nH]c(=O)c4ccccc34)ccc2F)CC1)C(=O)O [PPNR-4]
- IC50 (AurB): > 10 µM
- IC50 (MST2): > 10 µM
- IC50 (DYRK2): > 10 µM
- IC50 (AXL): > 10 µM
- IC50 (PARP14): > 10 µM
- IC50 (MLK3): > 10 µM
- IC50 (Erk1): > 10 µM
- IC50 (HIPK1): > 10 µM
- IC50 (JNK3): > 10 µM
- IC50 (CaMK2α): > 10 µM
- IC50 (PARP9): > 10 µM
- IC50 (EPHA3): > 10 µM
- Kd (PARP1): 0.00715 µM
- Kd (NRP1): 0.0166 µM
- IC50 (MLK1): > 10 µM
- IC50 (EPHA7): > 10 µM
- IC50 (GSK3β): > 10 µM
- IC50 (MET): > 10 µM
- IC50 (EPHA6): > 10 µM
- IC50 (FRK): > 10 µM
- IC50 (DYRK3): > 10 µM
- IC50 (NuaK1): > 10 µM
- IC50 (AMPKα1/β1/γ1): > 10 µM
- IC50 (DDR1): > 10 µM
- IC50 (NIM1K): > 10 µM
- IC50 (EPHB2): > 10 µM
- IC50 (BRSK1): > 10 µM
- IC50 (JAK3): > 10 µM
- IC50 (BRK): > 10 µM
- IC50 (FLT1): > 10 µM
- IC50 (MARK3): > 10 µM
- IC50 (FGFR2): > 10 µM
- IC50 (EPHA2): > 10 µM
- IC50 (PARP12): > 10 µM
- IC50 (GSK3α): > 10 µM
